Data from EP2439195B1, “NAPHTHALENE CARBOXAMIDE DERIVATIVES AS INHIBITORS OF PROTEIN KINASE AND HISTONE DEACETYLASE, PREPARATION METHODS AND USES THEREOF” (Shenzhen Chipscreen Biosciences, Ltd., priority 2009, dated 2010).

What was measured:
human PDGFRβ = target: T1, human PDGFRβ (Homo sapiens, UniProt P09619); experiment: PDGF dependent cell proliferation (MTS); format: cell-based; conditions: PDGFRβ NIH-3T3 cells, PDGF BB (50ng/ml), 72 hours, serum-free medium; read-out: Gl50 nM (PDGF ligand-dependent cell proliferation)
T1 construct: expressed in transfected cells
T1 sequence (P09619 33-1106): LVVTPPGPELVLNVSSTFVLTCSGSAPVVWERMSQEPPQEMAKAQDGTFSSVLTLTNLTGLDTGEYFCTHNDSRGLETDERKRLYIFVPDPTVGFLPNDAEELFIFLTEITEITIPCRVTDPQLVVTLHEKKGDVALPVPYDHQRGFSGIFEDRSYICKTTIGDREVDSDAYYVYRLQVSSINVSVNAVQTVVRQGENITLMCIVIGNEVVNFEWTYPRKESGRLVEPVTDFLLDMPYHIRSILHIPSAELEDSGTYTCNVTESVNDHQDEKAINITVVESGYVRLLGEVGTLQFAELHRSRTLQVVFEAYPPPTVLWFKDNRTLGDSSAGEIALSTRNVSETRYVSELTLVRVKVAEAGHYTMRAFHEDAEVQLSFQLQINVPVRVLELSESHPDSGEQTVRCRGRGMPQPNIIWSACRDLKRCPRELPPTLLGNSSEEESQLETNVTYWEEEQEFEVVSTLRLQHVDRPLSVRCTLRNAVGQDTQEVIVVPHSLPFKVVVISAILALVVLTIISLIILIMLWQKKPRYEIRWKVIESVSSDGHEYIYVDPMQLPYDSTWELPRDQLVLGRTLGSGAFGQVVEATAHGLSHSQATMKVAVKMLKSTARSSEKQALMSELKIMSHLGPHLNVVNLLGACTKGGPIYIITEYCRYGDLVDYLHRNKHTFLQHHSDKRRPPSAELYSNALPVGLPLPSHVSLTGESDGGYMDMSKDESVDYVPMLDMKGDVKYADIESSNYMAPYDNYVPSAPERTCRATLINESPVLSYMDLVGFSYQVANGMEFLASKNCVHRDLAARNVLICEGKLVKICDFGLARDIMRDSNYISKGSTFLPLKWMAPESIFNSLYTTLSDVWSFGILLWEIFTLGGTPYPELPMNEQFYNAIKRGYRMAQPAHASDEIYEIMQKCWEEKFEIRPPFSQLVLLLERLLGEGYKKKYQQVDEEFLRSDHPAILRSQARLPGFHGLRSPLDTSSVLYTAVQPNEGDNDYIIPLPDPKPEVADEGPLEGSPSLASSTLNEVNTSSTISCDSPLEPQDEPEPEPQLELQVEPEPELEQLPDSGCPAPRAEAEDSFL
Experimental: NIH-3T3 mouse fibroblasts cell line engineered to stably express human PDGFRβ was constructed and used to evaluate PDGF dependent cell proliferation. PDGFRβ NIH-3T3 cells were plated into 96-well plates at 5,000 per well and incubated overnight with serum-free medium after 24 hours. Compounds to be tested and PDGF BB (50ng/ml) were added and incubated for 72 hours in serum-free medium. The effects on proliferation were determined by MTS method (Promega) according to the instruction. Incubation was performed for 2 hours at 37°C in CO2 incubator, and absorbance at 490nm was measured using an ELISA plate reader.

Class I HDAC = experiment: HDAC subtype selectivity reporter gene assay (P21 reporter, HeLa cells); format: cell-based; conditions: Homo sapiens; 10µM; HeLa cells, 24 hours; read-out: Class I HDAC (P21 reporter assay) Fold Induction at 10µM
Experimental: Different HDAC subtypes can bind with different transcriptional factors and involve in expression regulation of various genes. Suitable regulation elements for transcriptional factors are selected to construct reporter genes, which can be used to evaluate the selective inhibition of inhibors on HDAC subtypes. Briefly, HeLa cells were seeded in 96-well plates the day before transfection to give a confluence of 50-80% when transfection. Cells were transfected with one of reporter gene plasmid containing a p21-promoter sequence or response element upstream of a luciferase gene construct using FuGene6 transfection reagent according to the manufacturer's instruction (Roche). For normalizing the transfection efficiency, a GFP expression plasmid was cotransfected. After 24 hours compounds or the vehicle control (DMSO) were added. 24 hours later the cells were harvested and lysed, and the amount of the luciferase was evaluated using luciferase assay kits (Promega) according to the manufacturer's instructions.

HUVEC cells = experiment: VEGF dependent cell proliferation (MTS); format: cell-based; conditions: Homo sapiens, VEGF 165 (50ng/ml), 72 hours, serum-free medium, read-out: Gl50 nM (VEGF ligand-dependent cell proliferation)
Experimental: HUVEC cells were plated into 96-well plates at 6,000 per well and after 24 hours incubated with serum-free medium for 2 hours. Compounds to be tested and VEGF 165 (50ng/ml) were added and incubated for 72 hours in serum-free medium. The effects on cell proliferation were determined by MTS method (Promega) according to the instruction. Incubation was performed for 2 hours at 37°C in CO2 incubator, and absorbance at 490nm was determined using an ELISA plate reader.

total HDAC enzyme = experiment: In vitro total HDAC enzyme activity (HDAC Fluorimetric Assay/Drug Discovery Kit, HeLa cell nuclear extract); format: biochemical
Experimental: The in vitro total HDAC enzyme activity was determined by HDAC Fluorimetric Assay/Drug Discovery Kit (BIOMOL) according to manufacture's instruction. The principle of the experiment is as follows: under the action of histone deacetylase (in the experiment, HeLa cell nuclear extract, which was rich in a variety of subtypes of HDAC, was used), an acetyl group is removed from a special substrate Fluor de Lys, thus the free amino is exposed. Upon Developer is added, the substrate will produce fluorescence. For the fluorescence, excitation wavelength is 360nm, and emission wavelength is 460nm. More fully the substrate deacetylated, more higher the fluorescence induced. In the absence of inhibitors, the fluorescence value is taken as the control; when inhibitor is existed, fluorescence value induced will be reduced, while in the case no enzyme is existed (corresponding to the completely inhibition of enzyme activity) the fluorescence value is blank. Generally, after suppression the fluorescence values will be between the control and blank. When analysis is made, blank will be used as 0, and the control will be used as 1. Smaller value means higher inhibitory activity. 1. Add Assay buffer, diluted trichostatin A and test inhibitor to appropriate wells of the microtiter plate. Following table lists the amounts used for each regent of various assay types.
2. Add diluted HeLa nucleoprotein extract to all wells except those that are marked as "blank". 3. Allow diluted Fluor de Lys™ Substrate and the samples in the microtiter plate to equilibrate to 25°C. 4. Initiate HDAC reactions by adding diluted substrate (25 µl) to each well and mixing thoroughly. 5. Allow reactions to proceed for 30 minutes and then stop them by addition of Fluor de Lys™ Developer (50 µl). Incubate plate at room temperature (25°C) for 10-15 min. 6. Read fluorescence of samples on a microtiter-plate reading fluorimeter at a excitation wavelength of 369 nm and a emitted wavelength of 451 nm.

Structure (SMILES)	IC50 (human PDGFRβ) [nM]	fold induction at 10 µM (Class I HDAC)	IC50 (HUVEC cells) [nM]	% inhibition of total HDAC enzyme activity at 30µM (total HDAC enzyme) [%]
COc1cc2ncnc(Oc3ccc4c(C(=O)Nc5ccc(C(F)(F)F)cc5N)cccc4c3)c2cc1OC [Compound 22, N-(2-amino-4-trifluoromethylphenyl)-6-(6,7-dimethoxyquinazolin-4-yloxy)-1-naphthamide]	372	1.1	3	17
COc1cc2ncnc(Oc3ccc4c(C(=O)Nc5ccc(Br)cc5N)cccc4c3)c2cc1OC [Compound 21, N-(2-amino-4-bromophenyl)-6-(6,7-dimethoxyquinazolin-4-yloxy)-1-naphthamide]	19	1.1	5	18.6
Nc1ccccc1NC(=O)c1cccc2cc(Oc3ccnc4c(C(F)(F)F)cccc34)ccc12 [Compound 42, N-(2-aminophenyl)-6-(8-trifluoromethylquinolin-4-yloxy)-1-naphthamide]	48	1.3	1000	6.2
Nc1ccccc1NC(=O)c1cccc2cc(Oc3ccnc4ccccc34)ccc12 [Compound 39, N-(2-aminophenyl)-6-(quinolin-4-yloxy)-1-naphthamide]	32	1.2	107	15.9
Nc1ccccc1NC(=O)c1cccc2cc(Oc3ccnc4cc(Cl)ccc34)ccc12 [Compound 41, N-(2-aminophenyl)-6-(7-chloroquinolin-4-yloxy)-1-naphthamide]	479	1.1	105	19.3
Nc1ccccc1NC(=O)c1ccc(CNC(=O)c2cccc3cc(Oc4ccnc5cc(Cl)ccc45)ccc23)cc1 [Compound 43, N-(4-((2-aminophenyl)carbamoyl)benzyl)-6-(7-chloroquinolin-4-yloxy)-1-naphthamide]	–	6.1	288	38.7
Nc1ccccc1NC(=O)c1ccc(CNC(=O)c2cccc3cc(Oc4ccnc5c(C(F)(F)F)cccc45)ccc23)cc1 [Compound 44]	–	3.2	1000	35.1
COc1cc2ncnc(Oc3ccc4c(C(=O)Nc5ccc(Cl)cc5N)cccc4c3)c2cc1OC [Compound 20, N-(2-amino-4-chlorophenyl)-6-(6,7-dimethoxyquinazolin-4-yloxy)-1-naphthamide]	23	1.5	6	21.9
COc1cc2ncnc(Oc3ccc4c(C(=O)Nc5ccc(C)cc5N)cccc4c3)c2cc1OC [Compound 18, N-(2-amino-4-methylphenyl)-6-(6,7-dimethoxyquinazolin-4-yloxy)-1-naphthamide]	15	1.1	7	17.1
COc1ccc(NC(=O)c2cccc3cc(Oc4ncnc5cc(OC)c(OC)cc45)ccc23)c(N)c1 [Compound 19, N-(2-amino-4-methoxyphenyl)-6-(6,7-dimethoxyquinazolin-4-yloxy)-1-naphthamide]	11	1.4	23	21.9
Cc1cccc2c(Oc3ccc4c(C(=O)Nc5ccccc5N)cccc4c3)ccnc12 [Compound 40, N-(2-aminophenyl)-6-(8-methylquinolin-4-yloxy)-1-naphthamide]	–	1.3	1000	22.2
